Experiments:
Assay in all cases: Post-emergence test on weeds
Type in all cases: in vivo
Parameters in all cases: key: Level 10: completely dead; Level 9: growth control rate greater than or equal to 90% and less than 100%; Level 8: growth control rate greater than or equal to 80% and less than 90%; Level 7: growth control rate greater than or equal to 70% and less than 80%; Level 6: growth control rate greater than or equal to 60% and less than 70%; Level 5: growth control rate greater than or equal to 50% and less than 60%; Level 4: growth control rate greater than or equal to 40% and less than 50%; Level 3: growth control rate greater than or equal to 30% and less than 40%; Level 2: growth control rate greater than or equal to 20% and less than 30%; Level 1: growth control rate less than 20%; Level 0: no effect
Settings in all cases: 3 weeks after application, fresh weight control rate
[1] = test system: Amaranthus retroflexus
Source text: (§1) The activity level criteria for plant damage (i.e., growth control rate) are as follows: • Level 10: completely dead; • Level 9: growth control rate greater than or equal to 90% and less than 100%; • Level 8: growth control rate greater than or equal to 80% and less than 90%; • Level 7: growth control rate greater than or equal to 70% and less than 80%; • Level 6: growth control rate greater than or equal to 60% and less than 70%; • Level 5: growth control rate greater than or equal to 50% and less than 60%; • Level 4: growth control rate greater than or equal to 40% and less than 50%; • Level 3: growth control rate greater than or equal to 30% and less than 40%; • Level 2: growth control rate greater than or equal to 20% and less than 30%; • Level 1: growth control rate less than 20%; • Level 0: no effect.
(§2) The above growth control rates are fresh weight control rates.
(§3) Monocotyledonous and dicotyledonous weed seeds (Descurainia sophia, Capsella bursa-pastoris, Abutilon theophrasti, Galium spurium, Stellaria media, Lithospermum arvense, Rorippa indica, Alopecurus aequalis, Alopecurus japonicus, Eleusine indica, Beckmannia syzigachne, Sclerochloa dura, Erigeron canadensis, Phleum paniculatum, Veronica polita, Bromus japonicus, Aegilops tauschii, Phalaris arundinacea, Amaranthus retroflexus, Chenopodium, Commelina communis, Cichorium endivia, Convolvulus arvensis, Cirsium arvense, Solanum nigrum, Acalypha australis, Digitaria sanguinalis, Echinochloa crus-galli, Setaria viridis, Setaria pumila, Leptochloa chinensis, Monochoria vaginalis, Sagittaria trifolia, Schoenoplectiella juncoides, Cyperus rotundus, Cyperus iria, Cyperus difformis, Fimbristylis, Portulaca oleracea, Xanthium sibiricum, Ipomoea nil, Eschenbachia japonica, etc.) and major crop seeds (wheat, maize, paddy rice, soybean, cotton, oilseed rape, millet, sorghum, potato, sesame, castor plant, etc.) were placed in plastic pots filled with soil and then covered with 0.5-2 cm of soil to allow them to grow in a favorable greenhouse environment. Two weeks after sowing, the test plants were treated at the stage of 2-3 leaves. The test compounds of the present invention were individually dissolved with acetone, then added with Tween® 80, with 1.5 L/ha of methyl oleate emulsifiable concentrate as a synergist, diluted into solutions of certain concentrations using certain amount of water, and sprayed to the plants using a spray tower. After drug application, the experimental results on weeds were collected after 3 weeks of cultivation in a greenhouse. The compounds were applied at 500, 250, 125, 60, 15, and 7.5 g a.i./ha in triplicate, and the results were averaged.

[2] = test system: Echinochloa crus-galli
Source text: as §1, §2, §3

[3] = test system: Veronica polita
Source text: as §1, §2, §3

[4] = test system: Digitaria sanguinalis
Source text: as §1, §2, §3

[5] = test system: Setaria viridis
Source text: as §1, §2, §3

[6] = test system: Abutilon theophrasti
Source text: as §1, §2, §3

CC1(C(=O)ON=C(c2ccccc2)c2ccccc2)CC(c2cc(-c3ncc(C(F)(F)F)cc3Cl)c(F)cc2Cl)=NO1 (stereo not drawn) [Compound 71]
10: activity level (growth control rate) Amaranthus retroflexus ([1]; 60 g a.i./ha) | activity level (growth control rate) Echinochloa crus-galli ([2]; 60 g a.i./ha) | activity level (growth control rate) Veronica polita ([3]; 60 g a.i./ha) | activity level (growth control rate) Digitaria sanguinalis ([4]; 60 g a.i./ha) | activity level (growth control rate) Setaria viridis ([5]; 60 g a.i./ha) | activity level (growth control rate) Abutilon theophrasti ([6]; 60 g a.i./ha)

CC1(C(=O)O/N=C/c2ccco2)CC(c2cc(-c3ncc(C(F)(F)F)cc3Cl)c(F)cc2Cl)=NO1 (stereo not drawn) [Compound 72]
10: activity level (growth control rate) Amaranthus retroflexus ([1]; 60 g a.i./ha) | activity level (growth control rate) Echinochloa crus-galli ([2]; 60 g a.i./ha) | activity level (growth control rate) Veronica polita ([3]; 60 g a.i./ha) | activity level (growth control rate) Digitaria sanguinalis ([4]; 60 g a.i./ha) | activity level (growth control rate) Setaria viridis ([5]; 60 g a.i./ha) | activity level (growth control rate) Abutilon theophrasti ([6]; 60 g a.i./ha)

Cc1ccc(/C=N/OC(=O)C2(C)CC(c3cc(-c4ncc(C(F)(F)F)cc4Cl)c(F)cc3Cl)=NO2)s1 (stereo not drawn) [Compound 73]
10: activity level (growth control rate) Amaranthus retroflexus ([1]; 60 g a.i./ha) | activity level (growth control rate) Echinochloa crus-galli ([2]; 60 g a.i./ha) | activity level (growth control rate) Veronica polita ([3]; 60 g a.i./ha) | activity level (growth control rate) Digitaria sanguinalis ([4]; 60 g a.i./ha) | activity level (growth control rate) Setaria viridis ([5]; 60 g a.i./ha) | activity level (growth control rate) Abutilon theophrasti ([6]; 60 g a.i./ha)

CC1(C(=O)ON=C2CCCC2)CC(c2cc(-c3ncc(C(F)(F)F)cc3Cl)c(F)cc2Cl)=NO1 (stereo not drawn) [Compound 74]
10: activity level (growth control rate) Amaranthus retroflexus ([1]; 60 g a.i./ha) | activity level (growth control rate) Echinochloa crus-galli ([2]; 60 g a.i./ha) | activity level (growth control rate) Veronica polita ([3]; 60 g a.i./ha) | activity level (growth control rate) Digitaria sanguinalis ([4]; 60 g a.i./ha) | activity level (growth control rate) Setaria viridis ([5]; 60 g a.i./ha) | activity level (growth control rate) Abutilon theophrasti ([6]; 60 g a.i./ha)

CCOC(=O)CCC1(C)CC(c2cc(-c3ncc(C(F)(F)F)cc3Cl)c(F)cc2Cl)=NO1 (stereo not drawn) [Compound 76]
10: activity level (growth control rate) Amaranthus retroflexus ([1]; 15 g a.i./ha) | activity level (growth control rate) Echinochloa crus-galli ([2]; 15 g a.i./ha) | activity level (growth control rate) Veronica polita ([3]; 15 g a.i./ha) | activity level (growth control rate) Digitaria sanguinalis ([4]; 15 g a.i./ha) | activity level (growth control rate) Setaria viridis ([5]; 15 g a.i./ha) | activity level (growth control rate) Abutilon theophrasti ([6]; 15 g a.i./ha)

CCSC(=O)C1(C)CC(c2cc(-c3ncc(C(F)(F)F)cc3Cl)c(F)cc2Cl)=NO1 (stereo not drawn) [Compound 78]
10: activity level (growth control rate) Amaranthus retroflexus ([1]; 15 g a.i./ha) | activity level (growth control rate) Echinochloa crus-galli ([2]; 15 g a.i./ha) | activity level (growth control rate) Veronica polita ([3]; 15 g a.i./ha) | activity level (growth control rate) Digitaria sanguinalis ([4]; 15 g a.i./ha) | activity level (growth control rate) Setaria viridis ([5]; 15 g a.i./ha) | activity level (growth control rate) Abutilon theophrasti ([6]; 15 g a.i./ha)

CCOC(=O)C1(C)CC(c2cc(-c3ncc(OC)cc3Cl)c(F)cc2Cl)=NO1 (stereo not drawn) [Compound 102]
10: activity level (growth control rate) Amaranthus retroflexus ([1]; 60 g a.i./ha) | activity level (growth control rate) Echinochloa crus-galli ([2]; 60 g a.i./ha) | activity level (growth control rate) Veronica polita ([3]; 60 g a.i./ha) | activity level (growth control rate) Digitaria sanguinalis ([4]; 60 g a.i./ha) | activity level (growth control rate) Setaria viridis ([5]; 60 g a.i./ha) | activity level (growth control rate) Abutilon theophrasti ([6]; 60 g a.i./ha)

C=C(C)c1cnc(-c2cc(C3=NOC(C)(C(=O)OCSC)C3)c(Cl)cc2F)c(Cl)c1 (stereo not drawn) [Compound 104]
10: activity level (growth control rate) Amaranthus retroflexus ([1]; 60 g a.i./ha) | activity level (growth control rate) Echinochloa crus-galli ([2]; 60 g a.i./ha) | activity level (growth control rate) Veronica polita ([3]; 60 g a.i./ha) | activity level (growth control rate) Digitaria sanguinalis ([4]; 60 g a.i./ha) | activity level (growth control rate) Setaria viridis ([5]; 60 g a.i./ha) | activity level (growth control rate) Abutilon theophrasti ([6]; 60 g a.i./ha)

CSCCOC(=O)C1CC(c2cc(-c3ncc(C(F)(F)F)cc3Cl)c(F)cc2Cl)=NO1 (stereo not drawn) [Compound 105]
10: activity level (growth control rate) Amaranthus retroflexus ([1]; 60 g a.i./ha) | activity level (growth control rate) Echinochloa crus-galli ([2]; 60 g a.i./ha) | activity level (growth control rate) Veronica polita ([3]; 60 g a.i./ha) | activity level (growth control rate) Digitaria sanguinalis ([4]; 60 g a.i./ha) | activity level (growth control rate) Setaria viridis ([5]; 60 g a.i./ha) | activity level (growth control rate) Abutilon theophrasti ([6]; 60 g a.i./ha)

C=C(C)c1cnc(-c2cc(C3=NOC(C)(C(=O)ON=C(C)C)C3)c(Cl)cc2F)c(Cl)c1 (stereo not drawn) [Compound 113]
10: activity level (growth control rate) Amaranthus retroflexus ([1]; 60 g a.i./ha) | activity level (growth control rate) Echinochloa crus-galli ([2]; 60 g a.i./ha) | activity level (growth control rate) Veronica polita ([3]; 60 g a.i./ha) | activity level (growth control rate) Digitaria sanguinalis ([4]; 60 g a.i./ha) | activity level (growth control rate) Setaria viridis ([5]; 60 g a.i./ha) | activity level (growth control rate) Abutilon theophrasti ([6]; 60 g a.i./ha)

CC(C)=NOC(=O)C1(C2CC2)CC(c2cc(-c3ncc(C(F)(F)F)cc3Cl)c(F)cc2Cl)=NO1 (stereo not drawn) [Compound 129]
10: activity level (growth control rate) Amaranthus retroflexus ([1]; 60 g a.i./ha) | activity level (growth control rate) Echinochloa crus-galli ([2]; 60 g a.i./ha) | activity level (growth control rate) Veronica polita ([3]; 60 g a.i./ha) | activity level (growth control rate) Digitaria sanguinalis ([4]; 60 g a.i./ha) | activity level (growth control rate) Setaria viridis ([5]; 60 g a.i./ha) | activity level (growth control rate) Abutilon theophrasti ([6]; 60 g a.i./ha)

— patent US20250066339A1, “HETEROCYCLE-SUBSTITUTED AROMATIC COMPOUND, METHOD FOR PREPARING SAME, HERBICIDAL COMPOSITION, AND USE THEREOF” (QINGDAO KINGAGROOT CHEMICAL COMPOUND CO., LTD., priority 2022, published 2025)
